Earlier results as cited in patent US20160347782A1, “4-methylcatechol Derivatives and Uses Thereof” (THANARES GMBH, priority 2011, published 2016).

Columns and labels:
[1] = tested on: liver cells; conditions: liver cells in vitro; in the μmol range
[2] = tested on: melanoma cells
[3] = tested on: normal human epidermal melanocytes

Row | SMILES | Inhibition of hepatocellular cholesterol synthesis [1] | Proliferation of melanoma cells [2] | Growth of normal human epidermal melanocytes [3]
1 | Cc1ccc(O)c(O)c1 [Example 4-MC, 4-Methylcatechol] | inhibits | inhibits | without impairing
2 | O=c1c(O)c(-c2ccc(O)c(O)c2)oc2cc(O)cc(O)c12 [quercetin] | inhibits |  | 
